# US20110053910A1, “2 -HETEROCYCLYLOXYBENZOYL AMINO HETEROCYCLYL COMPOUNDS AS MODULATORS OF GLUCOKINASE FOR THE TREATMENT OF TYPE 2 DIABETES” (priority 2005, published 2011)
# How the values were obtained:
# Zucker obese fa/fa rats = experiment: Oral Glucose Tolerance Test (OGTT); type: in vivo, rat; conditions: 10 mg/kg, given orally 120 minutes before glucose 2 g/kg; Zucker obese fa/fa rats on high fat diet; vehicle-control AUC = zero percent
# Procedure: Oral glucose tolerance tests were done on conscious Zucker obese fa/fa rats (age 12-13 weeks or older) fed a high fat diet (45% kcal fat) for at least two weeks prior to experimentation. The animals were fasted for 2 hours before use for experiments. A test compound or a vehicle was given orally 120 minutes before oral administration of a glucose solution at a dose of 2 g/kg body weight. Blood glucose levels were measured using a Accucheck glucometer from tail bled samples taken at different time points before and after administration of glucose (time course of […]). A time curve of the blood glucose levels was generated and the area-under-the-curve (AUC) for 120 minutes was calculated (the time of glucose administration being time zero). Percent reduction in glucose excursion was determined using the AUC in the vehicle-control group as zero percent reduction.
# [1] = target: T1, recombinant human pancreatic GLK (Homo sapiens, UniProt P35557); experiment: biochemical
# T1 sequence (P35557 1-465): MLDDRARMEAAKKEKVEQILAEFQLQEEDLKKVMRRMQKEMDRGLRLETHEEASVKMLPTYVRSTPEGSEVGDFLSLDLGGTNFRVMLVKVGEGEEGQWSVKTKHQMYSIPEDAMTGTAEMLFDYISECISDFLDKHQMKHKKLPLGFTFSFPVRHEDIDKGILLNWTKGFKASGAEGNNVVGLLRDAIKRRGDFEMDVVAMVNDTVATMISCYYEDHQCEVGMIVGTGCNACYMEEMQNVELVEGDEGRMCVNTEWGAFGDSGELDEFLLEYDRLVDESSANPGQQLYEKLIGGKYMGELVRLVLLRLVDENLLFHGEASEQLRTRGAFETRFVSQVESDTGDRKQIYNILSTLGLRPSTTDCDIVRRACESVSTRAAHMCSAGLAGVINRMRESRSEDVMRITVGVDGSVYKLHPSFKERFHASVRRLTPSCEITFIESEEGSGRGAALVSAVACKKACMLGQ
structure (smiles),measurement,setting,value
"C[C@@H](CO)Oc1cc(Oc2nc3ccccc3s2)cc(C(=O)Nc2ccn(C)n2)c1 [Example 1, 3-(1,3-Benzothiazol-2-yloxy)-5-{[(1S)-2-hydroxy-1-methylethyl]oxy}-N-(1-methyl-1H-pyrazol-3-yl)benzamide]","activity in OGTT (percent reduction in glucose excursion, AUC)",Zucker obese fa/fa rats,50%
same,EC50,[1],88 nM
